Test system: toxin-induced cell death in RAW264.7 cells
Settings: mouse

CC(=O)N[C@@H](C)C(=O)N[C@@H](Cc1c[nH]c2ccccc12)C(=O)N1CCC[C@H]1C(=O)N[C@@H](CC(C)C)C(=O)N[C@@H](CO)C(=O)N[C@@H](CCC(N)=O)C(=O)N[C@@H](CC(C)C)C(=O)N[C@@H](CC(=O)O)C(=O)N[C@@H](Cc1c[nH]cn1)C(=O)N[C@@H](CO)C(=O)N[C@@H](Cc1ccc(O)cc1)C(=O)N[C@@H](CC(N)=O)C(=O)N[C@@H](CS)C(N)=O [corresponding monovalent peptide]
IC50: > 2 mM
